Earlier results, collected in patent publication US20160346267A1, “Pharmaceutical Composition Comprising Apixaban” (SANDOZ AG, priority 2014, published 2016).

- solubility: poorly soluble
Compound: COc1ccc(-n2nc(C(N)=O)c3c2C(=O)N(c2ccc(N4CCCCC4=O)cc2)CC3)cc1 [Apixaban, 1-(4-methoxyphenyl)-7-oxo-6-(4-(2-oxopiperidin-1-yl)phenyl)-4,5,6,7-tetrahydro-1H-pyrazolo[3,4-c]pyridine-3-carboxamide]
